Source: patent publication US20090227600A1, “4-(PYRAZINE-2-YL) -PYRROLIDINE -2-CARBOXYLIC ACID COMPOUNDS AND DERIVATIVES THEREOF AS HEPATITIS C VIRUS INHIBITORS” (priority 2004, published 2009)

Tests used:
[1] = biological target: T1, HCV RNA Polymerase, recombinant full-length NS5B, genotype 1b (Hepatitis C virus genotype 1b, UniProt Q9WMX2); test: In vitro HCV RNA-dependent RNA polymerase inhibition assay, genotype 1b full-length enzyme; type: biochemical, HCV genotype 1b; conditions: genotype 1b full-length NS5B enzyme
T1 construct: Recombinant full-length NS5B; made in house
Method: Incorporation of [^33P]-GMP into RNA was followed by absorption of the biotin labelled RNA polymer by streptavidin containing SPA beads. A synthetic template consisting of biotinylated 13mer-oligoG hybridised to polyrC was used as a homopolymer substrate.
b) Genotype 1b Full-Length Enzyme
Reaction Conditions were 0.5 μM [^33P]-GTP (20 Ci/mMol), 1 mM Dithiothreitol, 20 mM MgCl2, 5 mM MnCl2, 20 mM Tris-HCl, pH7.5, 1.6 μg/mL polyC/0.256 μM biotinylated oligoG13, 10% glycerol, 0.01% NP-40, 0.2 u/μL RNasin and 50 mM NaCl.
HCV RNA Polymerase (Recombinant full-length NS5B (Lohmann et al, J. Virol. 71 (11), 1997, 8416. ‘Biochemical properties of hepatitis C virus NS5B RNA-dependent RNA polymerase and identification of amino acid sequence motifs essential for enzymatic activity’) expressed in baculovirus and purified to homogeneity) was added to 4 nM final concentration.
5× concentrated assay buffer mix was prepared using 1M MnCl2 (0.25 mL), glycerol (2.5 mL), 10% NP-40 (0.025 mL) and Water (7.225 mL), Total 10 mL.
2× concentrated enzyme buffer contained 1M-Tris-HCl, pH7.5 (0.4 mL), 5M NaCl (0.2 mL), 1M-MgCl2 (0.4 mL), glycerol (1 mL), 10% NP-40 (10 μL), 1M DTT (20 μL) and water (7.97 mL), Total 10 mL.
Substrate Mix was prepared using 5× Concentrated assay Buffer mix (4 μL), [^33P]-GTP (10 μCi/μL, 0.02 μL), 25 μM GTP (0.4 μL), 40 u/μL RNasin (0.1 μL), 20 μg/mL polyrC/biotinylated-oligoG (1.6 μL), and Water (3.94 μL), Total 10 μL.
Enzyme Mix was prepared by adding 1 mg/ml full-length NS5B polymerase (1.5 μL) to 2.81 mL 2×-concentrated enzyme buffer.
The Assay was set up using compound (1 μL), Substrate Mix (10 μL), and Enzyme Mix (added last to start reaction) (10 μL), Total 21 μL.
The reaction was performed in a U-bottomed, white, 96-well plate. The reaction was mixed on a plate-shaker, after addition of the Enzyme, and incubated for 1 h at 22° C. After this time, the reaction was stopped by addition of 40 μL 1.875 mg/ml streptavidin SPA beads in 0.1 M EDTA. The beads were incubated with the reaction mixture for 1 h at 22° C. after which 120 μL 0.1 M EDTA in PBS was added. The plate was sealed, mixed centrifuged and incorporated radioactivity determined by counting in a Trilux (Wallac) or Topcount (Packard) Scintillation Counter.
After subtraction of background levels without enzyme, any reduction in the amount of radioactivity incorporated in the presence of a compound, compared to that in the absence, was taken as a measure of the level of inhibition. Ten concentrations of compounds were tested in three- or fivefold dilutions. From the counts, percentage of inhibition at highest concentration tested or IC50s for the compounds were calculated using GraFit 3, GraFit 4 or GraFit 5 (Erithacus Software Ltd.) software packages or a data evaluation macro for Excel based on XLFit Software (IDBS).

[2] = system: Huh-7 HCV replicon cells (genotype 1a); test: Replicon ELISA cell based assay, genotype 1a; parameters: species or system HCV genotype 1a; conditions: Hepatitis C virus, Huh-7 genotype 1a replicon, 72 hours
Method: 100 μL of medium containing 10% FCS were added to each well of clear, flat-bottomed 96 well microplates, excepting wells in the top row. Test compound was diluted in assay medium to twice the final required starting concentration from a 40 mM stock solution in DMSO. 200 μL of the starting dilution were introduced into two wells each in the top row and doubling dilutions made down the plate by the sequential transfer of 100 μL aliquots with thorough mixing in the wells; the final 100 μL were discarded. The two bottom rows were not used for compound dilutions. Huh-7 HCV replicon cell monolayers nearing confluency were stripped from growth flasks with versene-trypsin solution and the cells were resuspended in assay medium at either 2×10^5 cells/mL (sub-line 5-15; genotype 1b; Lohmann, V., Komer, F., Koch, J-O., Herian, U., Thielmann, L. And Bartenschlager, R., 1999, Science, 285, pp 110-113) or at 3×10^5 cells/mL (genotype 1a; Gu, B., Gates, A. T., Isken, O., Behrens, S. E. and Sarisky, R. T., J. Virol., 2003, 77, 5352-5359). 100 μL of cell suspension were added to all wells and the plates incubated at 37° C. for 72 hours in a 5% CO2 atmosphere.
Following incubation, the assay medium was aspirated from the plates. The cell sheets were washed by gentle immersion in phosphate buffered saline (PBS), which was then aspirated off, and fixed with acetone:methanol (1:1) for 5 minutes. Following a further wash with PBS, 100 μL of ELISA diluent (PBS+0.05% v/v Tween 20+2% w/v skimmed milk powder) were added to all wells and the plates incubated at 37° C. for 30 minutes on an orbital platform. The diluent was removed and each well then received 50 μL of a 1/200 dilution of anti-HCV specific, murine, monoclonal antibody (either Virostat #1872 or #1877), except for wells in one of the compound-free control rows which received diluent alone to act as negative controls. The plates were incubated at 37° C. for 2 hours and washed 3 times with PBS/0.05% Tween 20, then 50 μL of horseradish peroxidase conjugated, anti-mouse, rabbit polyclonal serum (Dako #P0260), diluted 1/1000, were added to all wells. The plates were incubated for a further hour, the antibody removed and the cell sheets washed 5 times with PBS/Tween and blotted dry. The assay was developed by the addition of 50 μL of ortho-phenylenediamine/peroxidase substrate in urea/citrate buffer (SigmaFast, Sigma #P-9187) to each well, and colour allowed to develop for up to 15 minutes. The reaction was stopped by the addition of 25 μL per well of 2 M sulphuric acid and the plates were read at 490 nm on a Fluostar Optima spectrophotometer.
The substrate solution was removed and the plates were washed in tap water, blotted dry and the cells stained with 5% carbol fuchsin in water for 30 minutes. The stain was discarded and the cell sheets washed, dried and examined microscopically to assess cytotoxicity.
The absorbance values from all compound-free wells that had received both primary and secondary antibodies were averaged to obtain a positive control value. The mean absorbance value from the compound-free wells that had not received the primary antibody was used to provide the negative (background) control value. The readings from the duplicate wells at each compound concentration were averaged and, after the subtraction of the mean background from all values, were expressed as a percentage of the positive control signal. The quantifiable and specific reduction of expressed protein detected by the ELISA in the presence of a drug can be used as a measure of replicon inhibition. GraFit software was used to plot the curve of percentage inhibition against compound concentration and derive the 50% inhibitory concentration (IC50) for the compound.

T1 sequence (Q9WMX2 2420-3010): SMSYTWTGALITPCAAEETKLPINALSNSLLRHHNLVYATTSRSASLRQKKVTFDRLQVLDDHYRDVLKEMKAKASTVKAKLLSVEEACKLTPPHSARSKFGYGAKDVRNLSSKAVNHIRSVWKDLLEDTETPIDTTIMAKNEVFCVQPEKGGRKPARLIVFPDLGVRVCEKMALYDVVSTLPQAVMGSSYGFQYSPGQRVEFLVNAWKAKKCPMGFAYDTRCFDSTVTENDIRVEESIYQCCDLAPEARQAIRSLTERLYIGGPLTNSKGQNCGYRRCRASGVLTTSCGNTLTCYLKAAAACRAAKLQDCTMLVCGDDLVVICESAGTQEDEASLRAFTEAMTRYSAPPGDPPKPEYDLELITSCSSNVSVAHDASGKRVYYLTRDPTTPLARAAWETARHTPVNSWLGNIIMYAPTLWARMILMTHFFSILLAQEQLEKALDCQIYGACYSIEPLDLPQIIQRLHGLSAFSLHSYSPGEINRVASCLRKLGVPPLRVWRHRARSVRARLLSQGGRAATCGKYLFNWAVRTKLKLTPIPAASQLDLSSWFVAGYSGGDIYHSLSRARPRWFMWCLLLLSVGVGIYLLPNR

| Compound | IC50 [1] | IC50 [2] |
| --- | --- | --- |
| COc1cc(C(=O)N2[C@@H](c3nccs3)[C@@H](c3cnccn3)C[C@@]2(CC(C)C)C(=O)O)ccc1C(C)(C)C (racemic) [Compound A, rel-(2S,4S,5R)-2-Isobutyl-1-(4-tert-butyl-3-methoxybenzoyl)-4-(pyrazin-2-yl)-5-(1,3-thiazol-2-yl)pyrrolidine-2-carboxylic acid, reference compound] | 100 to 500 nM | 10000 to 100000 nM |
| COc1cc(C(=O)N2[C@@H](c3nccs3)[C@@H](c3cnccn3)C[C@@]2(Cc2ccccn2)C(=O)O)ccc1C(C)(C)C (racemic) [Compound C, rel-(2R,4S,5R)-1-(4-tert-Butyl-3-methoxybenzoyl)-2-(pyridin-2-ylmethyl)-4-(pyrazin-2-yl)-5-(1,3-thiazol-2-yl)pyrrolidine-2-carboxylic acid, reference compound] | 100 to 500 nM | 10000 to 100000 nM |
| COc1cc(C(=O)N2[C@@H](c3nccs3)[C@@H](c3cnccn3)C[C@@]2(Cc2c[nH]cn2)C(=O)O)ccc1C(C)(C)C (racemic) [Compound D, rel-(2R,4S,5R)-1-(4-tert-Butyl-3-methoxybenzoyl)-2-(1H-imidazol-4-yl-methyl)-4-(pyrazin-2-yl)-5-(1,3-thiazol-2-yl)-pyrrolidine-2-carboxylic acid, reference compound] | 100 to 500 nM | > 100000 nM |
| COc1cc(C(=O)N2[C@@H](c3cncs3)[C@@H](c3cnccn3)C[C@@]2(CCSC)C(=O)O)ccc1C(C)(C)C (racemic) [Compound E, rel-(2R,4S,5R)-1-(4-tert-Butyl-3-methoxybenzoyl)-2-(2-(methylthio)ethyl)-4-(pyrazin-2-yl)-5-(1,3-thiazol-5-yl)-pyrrolidine-2-carboxylic acid, reference compound] | 100 to 500 nM | 10000 to 100000 nM |
| COc1cc(C(=O)N2[C@@H](c3nccs3)[C@@H](c3cnccn3)C[C@@]2(CCS(C)(=O)=O)C(=O)O)ccc1C(C)(C)C (racemic) [Compound F, rel-(2R,4S,5R)-1-(4-tert-Butyl-3-methoxybenzoyl)-2-(2-(methylsulphonyl)ethyl)-4-pyrazin-2-yl-5-(1,3-thiazol-2-yl)-pyrrolidine-2-carboxylic acid, reference compound] | > 500 nM | > 100000 nM |
| COc1cc(C(=O)N2[C@@H](c3nccs3)[C@@H](c3cnccn3)C[C@@]2(Cc2ccccc2)C(=O)O)ccc1C(C)(C)C (racemic) [Compound G, rel-(2R,4S,5R)-1-(4-tert-Butyl-3-methoxybenzoyl)-2-(phenylmethyl)-4-(pyrazin-2-yl)-5-(1,3-thiazol-2-yl)pyrrolidine-2-carboxylic acid, reference compound] | 100 to 500 nM | 10000 to 100000 nM |
| COc1cc(C(=O)N2[C@@H](c3nccs3)[C@@H](c3cnccn3)C[C@@]2(Cc2cscn2)C(=O)O)ccc1C(C)(C)C (racemic) [Example 1, rel-(2R,4S,5R)-1-(3-Methoxy-4-tert-butylbenzoyl)-4-(pyrazin-2-yl)-2-(1,3-thiazol-4-ylmethyl)-5-(1,3-thiazol-2-yl)pyrrolidine-2-carboxylic acid] | < 100 nM | < 10000 nM |
| COc1cc(C(=O)N2[C@@H](c3nccs3)[C@@H](c3cnccn3)C[C@@]2(Cc2nccs2)C(=O)O)ccc1C(C)(C)C (racemic) [Example 3, rel-(2R,4S,5R)-1-(3-Methoxy-4-tert-butylbenzoyl)-4-(pyrazin-2-yl)-2-(1,3-thiazol-2-ylmethyl)-5-(1,3-thiazol-2-yl)pyrrolidine-2-carboxylic acid] | < 100 nM | < 10000 nM |
| COc1cc(C(=O)N2[C@@H](c3ncc(C)s3)[C@@H](c3cnccn3)C[C@@]2(Cc2ccsn2)C(=O)O)ccc1C(C)(C)C (racemic) [Example 5, rel-(2R,4S,5R)-1-(3-Methoxy-4-tert-butylbenzoyl)-5-(5-methyl-1,3-thiazol-2-yl)-4-(pyrazin-2-yl)-2-(1,2-thiazol-3-ylmethyl)pyrrolidine-2-carboxylic acid] | < 100 nM | < 10000 nM |
| COc1cc(C(=O)N2[C@@H](c3nccs3)[C@@H](c3cnccn3)C[C@@]2(Cc2ccsn2)C(=O)O)ccc1C(C)(C)C (racemic) [Example 7, rel-(2R,4S,5R)-1-(3-Methoxy-4-tert-butylbenzoyl)-4-(pyrazin-2-yl)-2-(1,2-thiazol-3-ylmethyl)-5-(1,3-thiazol-2-yl)pyrrolidine-2-carboxylic acid] | < 100 nM | < 10000 nM |
| COc1cc(C(=O)N2[C@@H](c3ncc(C)s3)[C@@H](c3cnccn3)C[C@@]2(Cn2cccn2)C(=O)O)ccc1C(C)(C)C (racemic) [Example 9, rel-(2R,4S,5R)-1-(3-Methoxy-4-tert-butylbenzoyl)-5-(5-methyl-1,3-thiazol-2-yl)-4-(pyrazin-2-yl)-2-(1H-pyrazol-1-ylmethyl)pyrrolidine-2-carboxylic acid] | < 100 nM | < 10000 nM |
| COc1cc(C(=O)N2[C@@H](c3nccs3)[C@@H](c3cnccn3)C[C@@]2(Cn2cccn2)C(=O)O)ccc1C(C)(C)C (racemic) [Example 11, rel-(2R,4S,5R)-1-(3-Methoxy-4-tert-butylbenzoyl)-4-(pyrazin-2-yl)-2-(1H-pyrazol-1-ylmethyl)-5-(1,3-thiazol-2-yl)pyrrolidine-2-carboxylic acid] | < 100 nM | < 10000 nM |
